Data reported in paper PMC3196344 (Nature medicine, 2009).

Legend:
CD4+/CD8+ thymocytes = experiment: Flow cytometry of thymocytes from dex-treated mice; format: in vivo, BALB/c mice; details: measured by a drop in this cell population over time; dex 50 mg/kg IP
thymocytes = details: after dex treatment; cited from earlier work
[1] = exposed during late stages of apoptosis; cited from earlier work
[2] = leading to high background signals; cited from earlier work
caspase-3/7 = experiment: Caspase labeling in COLO205 tumors of Apomab-treated mice, SDS-PAGE; format: in vivo, human colorectal cancer COLO205 xenograft in nude mice; details: Apomab 10 mg/kg IV; AB50-Cy5 50 nmol IV 1 h; COLO205 xenograft
legumain [3] = experiment: Legumain labeling in COLO205 tumors of Apomab-treated mice, SDS-PAGE; format: in vivo, human colorectal cancer COLO205 xenograft in nude mice; details: Apomab 10 mg/kg IV; AB50-Cy5
legumain [4] = details: cited from earlier work
caspases-3/7 = details: cited from earlier work
cathepsins = details: cited from earlier work

Molecule: C[C@@H]1C[C@H]2[C@@H]3CCC4=CC(=O)C=C[C@]4(C)[C@@]3(F)[C@@H](O)C[C@]2(C)[C@@]1(O)C(=O)CO [dexamethasone]
- induction of apoptosis in CD4+/CD8+ cells (CD4+/CD8+ thymocytes): specifically induced apoptosis in CD4+/CD8+ cells
- TUNEL+ staining at 18 and 24 hours (thymocytes): sharp decrease

Molecule: Annexin V: protein with high affinity for phosphatidylserines exposed during the late stages of apoptosis
- affinity for phosphatidylserines [1]: high affinity
- clearance in vivo [2]: slow clearance in vivo

Molecule: Apomab: monoclonal antibody that induces the extrinsic apoptosis pathway by binding to death receptor 5
- time of optimal (peak) caspase activity after Apomab (caspase-3/7): 12 h
- legumain labeling over time course after Apomab (legumain [3]): constant throughout the time course

Molecule: Asp-Glu-Val-Asp [DEVD]
- recognition by legumain (legumain [4]): efficiently recognized
- recognition by caspases-3/7 (caspases-3/7): optimal
- recognition by cathepsins (cathepsins): efficiently recognized
